“Also recorded” adds a separate entry of the source.
Experiments:
[1] = system: mouse cortical and striatal neurons; assay: Morphological integrity evaluation, NMDA 20 μM; format: cell-based; settings: 1 μM, 24 h pre-treatment, NMDA 20 μM 24 h
Experimental: Morphological integrity evaluation. Mouse cortical and striatal neurons (14 DIV) cultured in MW96 plates were exposed to 1 uM to 60 uM concentrations of NMDA and relationship between the NMDA dose and fiber length was evaluated. […] Each of the compound was tested in quadruplicate. The fiber length was evaluated by MAP2 staining (please see the method described earlier).
42 compounds were screened to evaluate the morphological integrity of cortical and striatal neurons upon chronic (24 h) NMDA exposure at concentration of 20 μM with compounds pre-treatment (24 h) in preventive regimen (FIG. 17).

[2] = system: rat oligodendrocyte progenitor CG4 line; assay: Differentiation assay on rat oligodendrocyte progenitor CG4 line (HCS, mCherry+); format: cell-based; settings: secondary screen of 49 selected compounds, 1 μM, 5 days
Method in brief: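 Double-reporter CG4 cells (mCherry in mature oligodendrocytes, EGFP in all lineage stages) proliferated 24 h, then given compounds at 1 μM for 5 days of differentiation, ⅔ medium changed at day 3. 9cis-RA as positive control, basal medium and 0.1% DMSO as negative; triplicates imaged by HCS, 35 fields/well.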

rat primary OPC cultures = assay: Differentiation of rat primary OPC into MBP+ OLs; format: cell-based; settings: 96 h, 4 days of differentiation, read-out: MBP+ differentiation (MBP+/SOX10+ OLs plus compounds / plus basal medium)
Method in brief: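 Primary rat OPCs were differentiated for 4 days with compounds at […], in triplicate over 3 independent experiments. Cells were immunolabelled for CNPase, MBP and SOX10, and MBP+ oligodendrocytes were counted by imaging. Results are fold increase in MBP+/SOX10+ cells over basal medium; 9-cis-RA ([…]) was the positive control.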

[3] = system: H9-derived human neural stem cells; assay: Neurotoxic or regenerative effect screening (CellTiter-Glo); format: cell-based; settings: 10 μM, three independent screenings
Experimental: H9-derived human neural stem cells (H9 hNSCs, Gibco) were cultured according to the manufacturer's instructions. Briefly, H9 hNSCs were expanded and subsequently differentiated in neurobasal medium, 2% B27, 1% Glutamax, and 1% penicillin/streptomycin, supplemented with 10 ng/ml BDNF (Peprotech), and 2 ng/ml recombinant human GDNF (Peprotech). After 7 days, 500 μM of db-cAMP (N6,2′-O-dibutyryladenosine 3′,5′-cyclic monophosphate, Sigma) was added.
The metabolic activity/viability of selected compounds (32 “Front Runners”+24 compounds from the “Short list”) was evaluated by CellTiter-Glo® Luminescent Cell Viability Assay. The primary screen of Front Runner List (32 compounds)+24 compounds from Short List) on H9-derived human neurons was performed at 10 μM concentration. The validation of hits from primary screen on H9-derived human neurons was performed at 10 μM concentration.
32 Front Runners were tested at 10 μM on H9-derived human neuronal cultures and viability was evaluated by CellTiter-Glo® Luminescent Cell Viability Assay.

mouse cortical neurons = assay: Morphological integrity evaluation, NMDA 8 μM (MAP2 neurite length and branching); format: cell-based; settings: 3 h pre-treatment, NMDA 8 μM 24 h, Z>0.5 criteria
Method in brief: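 Mouse cortical neurons (14 DIV) pre-treated 3 h with compounds, then exposed 24 h to 8 μM NMDA; fixed, MAP2 immunostained with DAPI. Total neurite length and non-trunk branch number from 15 images/well, triplicates, converted to plate-based Z-scores; NAC positive, staurosporine and NMDA negative controls.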

[4] = system: human iPS-derived neuroprecursors; assay: Differentiation of human iPS-derived neuroprecursors into MBP+ oligodendrocytes; format: cell-based; settings: 1 μM in minimal medium, p<0.05
Excerpt: NPC bearing a doxycycline inducible polycistronic construct containing SOX10, OLIG2 and NKX6.2^29 in a human safe harbor (passages 10 to 25) were singularized on day −3 by treatment with Accutase and plated on Matrigel-coated 12-well plates at a density of 100.000 cells per well in N2B27-medium containing equal parts of neurobasal (Invitrogen) and DMEM-F12 medium (Invitrogen) with 1:100 B27 supplement lacking vitamin A (Invitrogen), 1:200 N2 supplement (Invitrogen), 1% penicillin/streptomycin/glutamine (PSG), 3 μM CHIR99021 (Axon Medchem), 150 μM ascorbic acid and 0.5 μM SAG. The next day medium was changed to N2B27-medium containing 1 μg/ml doxycycline. On DO medium was changed to glial-induction medium (GIM) consisting of DMEM-F12 with 1:100 B27 supplement lacking vitamin A, 1:200 N2 supplement, 1% PSG, 1 μM SAG, 10 ng/mL NT3 (Peprotech), 10 ng/mL IGF-I (Peprotech), 200 μM AA (Sigma), 1:1000 Trace Elements B (Corning). For full medium conditions 10 ng/ml T3 was added. On Day 2 medium was changed to glial-differentiation medium (GDM) comprising DMEM-F12 with 1:100 B27 supplement lacking vitamin A, 1:200 N2 supplement, 1% PSG, 100 μM dbCAMP (Sigma), 100 μM AA, 1:1000. For full medium conditions 60 ng/mL T3, Trace Elements B 10 ng/mL, IGF-I, 10 ng/mL and NT3 were added to the culture. GDM was changed every other day. On day 7 cells were detached by treatment with Accutase and re-plated on laminin coated 48-well plates at densities of 10.000-12.000 cells per well. After 24 h cells were treated in minimal medium with either vehicle alone [0.01% (vol/vol) DMSO] as a negative control, 60 ng/mL T3 as a positive control, or with a drug candidate dissolved in DMSO. Medium was changed every other day. On D16 doxycycline was removed from the medium. Cells were fixed on D21 and analyzed via immunocytochemistry.
Immunocytochemistry. Cells were initially fixed with 4% PFA treatment for 20 min, RT. Following three washes with PBS cells were incubated with blocking solution containing 5% normal goat serum (NGS) and 5% FCS (fetal calf serum) in PBS for 30 min at RT to prevent unspecific binding of the antibodies. To detect intracellular antigens cells were permeabilized by adding 0.5% Triton X-100 to the Blocking-solution. Cells treated with Triton X-100 were washed three times with PBS each time for 5 min at RT. Primary antibodies (rat anti-MBP,1:50, Abcam, AB7349) were applied overnight, 4° C., in blocking solution. The next day cells were washed 3 times with PBS at RT, and afterwards incubated with secondary antibodies (AF488 Alexa Fluor anti-rat (goat), 1:500, Jackson/Dianova, #112-545-167) diluted in PBS for 1 h at RT. Secondary antibodies were subsequently removed by washing 3 times with PBS. Afterwards PBS containing a Dapi staining for nuclei was added for 5 minutes and afterwards washed off with PBS. Cells were kept at 4° C. until imaging.
Imaging and evaluation. From each condition (triplicates) 20-30 pictures were taken randomly chosen by the Dapi-signal. Cell numbers were determined by using an ImageJ Macro to count the nuclei whereas MBP positive cells were subsequently counted manually in black and white images.
The effect on oligodendroglial differentiation of 32 compounds (“Front runners”) was tested. Induced pluripotent stem cells in which the transcription factors SOX10, OLIG2, NKX6.2 were inserted in a doxycycline inducible manner into a human safe harbor were differentiated into neural stem cells. Differentiation into oligodendrocytes was induced by addition of doxycycline. Cells were cultured either in a minimal medium (MM) (negative control) or in MM with the different compounds at a concentration of 1 μM. Addition of T3 to the minimal medium served as a positive control.

[5] = system: murine cortical neurons (14 DIV); assay: NMDA-mediated neuroprotective assay (CCK8 viability); format: cell-based, mouse; settings: 1 μM, 3 h pre-treatment, NMDA 8 μM 24 h, p<0.05
Method in brief: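 Primary murine cortical neurons pre-treated with 1 μM compound for 3 or 24 h, then exposed to 8 μM NMDA for 24 h. Viability read by CCK-8 and expressed relative to NMDA-only control; vehicle 0.02% DMSO.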

SMILES | morphological integrity (neurite length) of cortical and striatal neurons [1] | CG4 differentiation compared with 9cis-RA positive control [2] | fold induction at 1 µM (rat primary OPC cultures) | cumulative Z-scores of ATP production/viability [3] | other results
COc1ccc2c(OCc3nnc4ccc(-c5ccccc5)nn34)ccnc2c1 [AMG-208] | selected for confirmation | – | – | – | –
C=CCc1ccccc1OCC(O)CNC(C)C (stereo not shown) [Alprenolol] | – | promoting differentiation significantly higher than 9cis-RA positive control | > 1.6 | potential hits | –
O=c1[nH]c2cccc(N3CCN(Cc4cccc(-c5ccccc5)c4)CC3)c2o1 [Bifeprunox] | selected for confirmation | – | – | – | preservation of neurite length and network integrity (branching) (mouse cortical neurons): preserved both neurite length and the network integrity (branching); preservation of neurite length and network integrity (branching) (mouse cortical neurons; listed as BIFEPRUNOX): two best-performing compounds
COc1ccc(Cl)cc1[C@]1(F)C(=O)Nc2cc(C(F)(F)F)ccc21 [Flindokalner] | selected for confirmation | – | – | – | –
Cc1c(Cn2c(C)nc3c(C(=O)O)cc(N4CCOCC4)cc32)cccc1C(F)(F)F [GSK-2636771] | selected for confirmation | – | – | – | –
COc1ccc(S(=O)(=O)n2cc(CCC(=O)O)c3cc(OC)ccc32)cc1 [Indeglitazar] | – | promoting differentiation significantly higher than 9cis-RA positive control | > 1.6 | potential hits | differentiation into MBP+ oligodendrocytes [4]: promote significantly (p<0.05) the differentiation into MBP+ oligodendrocytes
Cc1ncc(OC[C@@]2(c3cccc(F)c3)C[C@H]2C(=O)Nc2ccc(F)cn2)c(C)n1 [Lemborexant] | – | promoting differentiation significantly higher than 9cis-RA positive control | > 1.6 | potential hits | –
O=C(Oc1ccc(Br)cc1)N1CCN2CCC1CC2 [SSR180711] | selected for confirmation | – | – | – | neuroprotection of viability/metabolic activity against NMDA [5]: hit compounds; preservation of neurite length and network integrity (branching) (mouse cortical neurons): preserved both neurite length and the network integrity (branching); also recorded: two best-performing compounds
C[C@@H](C(=O)O)c1ccc(-c2ccccc2)c(F)c1 [Tarenflurbil] | selected for confirmation | – | – | – | neuroprotection of viability/metabolic activity against NMDA [5]: trend versus significance
CCC(COC(=O)c1cc(OC)c(OC)c(OC)c1)(c1ccccc1)N(C)C (stereo not shown) [Trimebutine] | hit-compound in both cortical and striatal neuronal assays | – | – | – | –
